Source: the NIST ThermoML archive (doi:10.1016/j.jct.2017.03.006)

Assay: xn = mol fraction of the nth substance listed
Settings: 333.15 K, Liquid, Vibrating tube method

Cc1ccc(C)c(C)c1 [1,2,4-trimethylbenzene] + CCC(C)O
mass density [kg/m3]
Settings | x2 = 0 | x2 = 0.1 | x2 = 0.1989 | x2 = 0.3011 | x2 = 0.4002 | x2 = 0.5001 | x2 = 0.5997 | x2 = 0.6999 | x2 = 0.7999 | x2 = 0.9
40000 kPa | – | – | – | – | – | – | – | – | 819.7 | 812.1
50000 kPa | 877.4 | 871.2 | 865.3 | 859.2 | 853.2 | 847.6 | 840.5 | 833.4 | 826.3 | 818.7
60000 kPa | 883 | 876.9 | 871.1 | 865.1 | 859.1 | 853.7 | 846.6 | 839.5 | 832.5 | 824.9
70000 kPa | 888.2 | 882.5 | 876.6 | 870.6 | 864.8 | 859.3 | 852.3 | 845.3 | 838.4 | 830.7
80000 kPa | 893.2 | 887.6 | 881.9 | 875.9 | 870.1 | 864.7 | 857.8 | 850.8 | 843.7 | 836.2
90000 kPa | 898 | 892.5 | 886.9 | 881 | 875.2 | 869.8 | 862.9 | 856 | 849 | –
